Consider 32 molecules from US20240059693A1, “FUSED BICYCLIC PYRAZOLE DERIVATIVES AND METHODS OF USE THEREOF FOR THE TREATMENT OF HERPESVIRUSES” (Merck Sharp & Dohme LLC, priority 2020, published 2024).

Each structure is given as a SMILES string. Like-named read-outs stand apart in the source and are kept apart here.

The target in experiment [1] is T1, Human cytomegalovirus DNA polymerase (Human cytomegalovirus, UniProt P08546).
T1 construct: made in house; host or cells: SF21 insect cells (baculovirus vector)
T1 sequence (P08546 whole entry): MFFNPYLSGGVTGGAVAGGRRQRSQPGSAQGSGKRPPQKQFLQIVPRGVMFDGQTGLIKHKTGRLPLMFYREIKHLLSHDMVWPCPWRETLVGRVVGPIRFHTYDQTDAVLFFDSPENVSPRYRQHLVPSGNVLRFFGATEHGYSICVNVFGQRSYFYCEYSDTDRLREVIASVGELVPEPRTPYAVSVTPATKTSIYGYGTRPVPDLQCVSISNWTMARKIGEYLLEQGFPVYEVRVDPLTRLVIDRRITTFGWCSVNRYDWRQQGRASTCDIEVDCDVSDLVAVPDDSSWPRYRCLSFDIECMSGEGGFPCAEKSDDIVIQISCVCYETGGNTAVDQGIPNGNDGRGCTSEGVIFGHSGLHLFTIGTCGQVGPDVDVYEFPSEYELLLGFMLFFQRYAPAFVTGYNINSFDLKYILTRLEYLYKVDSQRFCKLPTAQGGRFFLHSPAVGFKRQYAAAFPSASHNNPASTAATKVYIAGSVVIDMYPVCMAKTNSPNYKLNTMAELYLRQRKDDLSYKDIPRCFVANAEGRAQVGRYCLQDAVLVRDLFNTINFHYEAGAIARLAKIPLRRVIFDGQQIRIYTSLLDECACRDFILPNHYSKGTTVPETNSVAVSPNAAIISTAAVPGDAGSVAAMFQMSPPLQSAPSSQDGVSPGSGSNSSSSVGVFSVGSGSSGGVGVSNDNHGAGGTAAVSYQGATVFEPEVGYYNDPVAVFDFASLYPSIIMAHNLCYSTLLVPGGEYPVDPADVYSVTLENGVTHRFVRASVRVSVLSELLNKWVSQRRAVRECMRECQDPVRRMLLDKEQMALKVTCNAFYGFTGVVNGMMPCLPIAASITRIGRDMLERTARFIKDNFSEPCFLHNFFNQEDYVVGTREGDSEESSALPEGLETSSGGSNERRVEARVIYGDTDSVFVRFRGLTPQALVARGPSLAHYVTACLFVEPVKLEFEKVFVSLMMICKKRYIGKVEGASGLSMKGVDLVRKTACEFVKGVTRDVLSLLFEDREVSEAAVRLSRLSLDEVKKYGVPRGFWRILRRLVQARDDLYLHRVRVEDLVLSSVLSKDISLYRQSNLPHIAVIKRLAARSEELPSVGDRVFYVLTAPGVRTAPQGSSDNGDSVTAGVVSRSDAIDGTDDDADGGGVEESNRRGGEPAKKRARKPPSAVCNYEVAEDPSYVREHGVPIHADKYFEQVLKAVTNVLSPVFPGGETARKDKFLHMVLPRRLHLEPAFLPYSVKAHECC
Nature of the experiment: HCMV polymerase assay (AlphaLISA). The format is biochemical. The note with it: HCMV DNA polymerase 0.2 nM, 60 minutes at 37° C.; read-out: CMV (IC50). The method, then: Human cytomegalovirus and varicella zoster virus DNA polymerases were expressed via baculovirus vector in SF21 cells and purified. Heterodimeric nucleic acid substrate used in the herpesvirus polymerase reactions was generated by annealing a 59-mer template to a 17-mer digoxigenin-labeled primer. Polymerase (HCMV final concentration of 0.2 nM; VZV final concentration of 0.4 nM) was combined with an inhibitor compound or DMSO in assay buffer (10 mM HEPES, pH 7.5, 25 mM KCl, 25 mM NaCl, 5 mM MgCl2, 5% glycerol, 0.67 mg/ml bovine serum albuminutes, and 1 mM tris(2-carboxyethyl)phosphine), and this mixture was pre-incubated for 30 minutes at room temperature in 384-well microtiter plates. The polymerization reaction was initiated by the addition of template/primer substrate (final concentration: 1.6 nM), and dNTPs (final concentration: 24 nM dCTP, 24 nMdGTP, 16 nM dATP, 16 nM dTTP, and 0.8 nM biotin-dUTP). After 60 minutes incubation at 37° C., reactions were terminated with quench buffer (25 mM HEPES pH 7.5, 100 mM NaCl, 0.25% Tween-20, 12 mM EDTA, and 1 mg/ml bovine serum albumin). Incorporation of biotinylated UTP was detected with 2.5-ug/ml anti-DIG AlphaLISA acceptor beads and 5-10 ug/ml streptavidin AlphaLISA donor beads (Perkin Elmer). Compound effects were normalized to the window defined by the controls (DMSO only and pre-quenched wells) and were fit using a 4-parameter algorithm to report an IC50.
A general note: Bead proximity is the source of the signal in Alpha formats.

A further experiment has as its system HCMV Strain AD169. Nature of the experiment: Viral qPCR assay, HCMV in MRC-5 cells. The class given is cell-based, Human cytomegalovirus. The note with it: read-out: CMV MRC5 Cell (EC50). The method, then:
(§1) MRCS cells, Vero cells, and MeWo cells were obtained from ATCC and were maintained at 37° C./5% CO2/90% relative humidity in Minimal Essential Medium with 10% fetal bovine serum, […] L-glutamine, 100 units/ml penicillin and 100 ug/ml streptomycin. Assay plates were prepared by dispensing compounds dissolved in DMSO into wells of 384 well collagen-coated plates using an ECHO acoustic dispenser. Each compound was tested in a 10-point, serial 3-fold dilution. Controls included uninfected cells and infected cells treated only with DMSO. Assays were initiated by mixing selected cells, in suspension, with virus, and dispensing 50 μl/well infected cells to pre-plated compounds. Plates were incubated at 37° C./5% CO2/90% relative humidity for ˜72 hrs to permit genomic replication, and infected cells were lysed by the addition of an equal volume of lysis buffer (10 mM Tris-HCl, pH8, 50 mM KCl, 2 mM MgCl2, 0.45% NP-40, 0.45% Tween-20, and 100 μg/ml proteinase K). An aliquot of the lysate was transferred to a 384-well PCR plate and incubated at 56° C. for 1 hour and then at 95° C. for 10 min. Levels of a viral gene and of the cellular control, PPIA (Thermo Fisher Assay ID=Hs04194521_s1), were measured in separate 10 μL qPCR assays using TaqMan® Gene Expression Master Mix (Applied Biosystems), and an 7900HT Fast Real-Time PCR System with 384-Well Block Module. 7-point, serial 10-fold dilutions of a plasmid standard were run on each plate to generate a standard curve, and genome copies numbers were calculated by plotting experimental Ct onto linear regression of the standard curve. Viral genome copy numbers were normalized by cellular control copy number, and compound effects were normalized to the window defined by the controls. Calculated % effects were fit using a 4-parameter algorithm, and EC50 was reported.
as §1, with “gene” for “gene and of the cellular control, PPIA (Thermo Fisher Assay ID=Hs04194521_s1),”, “in” for “in separate”, “Compound effects on viral” for “Viral”, “number” for “numbers were normalized by cellular control copy number, and compound effects”
HCMV: Strain AD169 Street was assayed in MRC-5 cells and was used at 0.05-0.1 pfu/cell. The assays were performed in either growth media or in the same media with 50% fetal bovine serum. Primer-probe set was Thermo Fisher Assay ID=AIFATFK.
In general terms: In qPCR the cycle at which signal appears reflects the starting amount.

Where [2] appears, read: Human betaherpesvirus 5, AD169, MRC5, 72 h.

For orientation: IC50 means the concentration that inhibits the measured activity by half. What is called EC50 is the concentration needed to bring the measured effect to its halfway point. In the case of `CC([C@@H]1CCC(=O)N1)N1Cc2c(C(=O)NCc3ccc(Cl)cc3)nn(-c3nccs3)c2C1` (single isomer, unassigned) [Compound 6], the IC50 in experiment [1] is 0.958 µM. For the same molecule, in the experiment with HCMV Strain AD169 (MRC5 cells, ~72 hrs), the EC50 stood at 5.87 µM.
The like results for `O=C1CC[C@@H](CN2Cc3c(C(=O)NCc4ccc(Cl)cc4)nn(C4CCC(F)(F)C4)c3C2)N1` (single isomer, unassigned) [Compound 54] were, in that order, 0.146 µM and 1.58 µM.
As for `CC(C1CC(F)(F)C(=O)N1)N1Cc2c(C(=O)NCc3ccc(Cl)cc3)nn(C)c2C1` (single isomer, unassigned) [Compound 83], the IC50 in experiment [1] turned out to be 13.3 µM. The 50% effective concentration (EC50) with HCMV Strain AD169 (setting [2]) turned out to be 99 µM.
As to `CCC(C1CCC(=O)N1)N1Cc2c(C(=O)NCc3ccc(Cl)cc3)nn(C)c2C1` (single isomer, unassigned) [Compound 89], the concentration for half-maximal inhibition (IC50) in experiment [1] stood at 0.8 µM. Besides, the half-maximal effective concentration (EC50) in the experiment with HCMV Strain AD169 (setting [2]) was determined as 7.64 µM.
Consider `CC1c2c(c(C(=O)NCc3ccc(Cl)cc3)nn2C)CN1CC1CCC(=O)N1` (single isomer, unassigned) [Compound 102], for which the IC50 in experiment [1] is 5.77 µM. The concentration giving a half-maximal response (EC50) in the experiment on HCMV Strain AD169 (MRC5 cells, ~72 hrs) was 71.2 µM.
On to `CCC1c2c(c(C(=O)NCc3ccc(Cl)cc3)nn2C)CN1CC1CCC(=O)N1` (single isomer, unassigned) [Compound 104], for which the 50% inhibitory concentration (IC50) in experiment [1] worked out at 1.81 µM. Also, in the experiment with HCMV Strain AD169 (MRC5 cells, ~72 hrs), the EC50 was found to be 38.7 µM.
Take `CC1c2c(c(C(=O)NCc3ccc(Cl)cc3)nn2C)CN1CC1CCC(=O)N1` (single isomer, unassigned) [Compound 108]: the IC50 in experiment [1] is 0.702 µM. Further, in the experiment with HCMV Strain AD169 (MRC5 cells, ~72 hrs), the EC50 was determined as 1.96 µM.
For `CC(C)[C@H]1c2c(c(C(=O)NCc3ccc(Cl)cc3)nn2C)CN1C(C)C1CCC(=O)N1` (single isomer, unassigned) [Compound 115], the IC50 in experiment [1] is 0.566 µM. In the experiment with HCMV Strain AD169 (setting [2]), the EC50 turned out to be 4.24 µM.
For the molecule `CC(C)[C@H]1c2c(c(C(=O)NCc3ccc(Cl)cc3)nn2C)CN1C(C)C1CCC(=O)N1` (single isomer, unassigned) [Compound 116], the IC50 in experiment [1] is 10.9 µM. In addition, the EC50 with HCMV Strain AD169 (MRC5 cells, ~72 hrs) came to 99 µM.
Turning to `CC(C)[C@H]1c2c(c(C(=O)NCc3ccc(Cl)cc3)nn2C)CN1C(C)C1CCC(=O)N1` (single isomer, unassigned) [Compound 117], the IC50 in experiment [1] came out at 0.68 µM. The EC50 in the experiment on HCMV Strain AD169 (MRC5 cells, ~72 hrs) is 4.64 µM.
For `CC(C)[C@H]1c2c(c(C(=O)NCc3ccc(Cl)cc3)nn2C)CN1C(C)C1CCC(=O)N1` (single isomer, unassigned) [Compound 118], the IC50 in experiment [1] worked out at 0.0837 µM. The concentration for a half-maximal effect (EC50) in the experiment on HCMV Strain AD169 (MRC5 cells, ~72 hrs) is 1.6 µM.
As for `CC(=O)OCC1c2c(c(C(=O)NCc3ccc(Cl)cc3)nn2C)CN1C[C@H]1CCC(=O)N1` (single isomer, unassigned) [Compound 119], in experiment [1], the half-maximal inhibitory concentration (IC50) turned out to be 7.85 µM. The EC50 in the experiment with HCMV Strain AD169 (MRC5 cells, ~72 hrs) amounted to 99 µM.
Turning to `Cn1nc(C(=O)NCc2ccc(Cl)cc2)c2c1C(CO)N(C[C@H]1CCC(=O)N1)C2` (single isomer, unassigned) [Compound 121], in experiment [1], the half-maximal inhibitory concentration (IC50) came to 13.3 µM. Also, the EC50 in the experiment with HCMV Strain AD169 (setting [2]) worked out at 99 µM.
For `O=C1CC[C@H](CN2Cc3c(C(=O)NCc4ccc(Cl)cc4)nn(-c4ncc(CO)s4)c3C2)N1` [Compound 9], the 50% inhibitory concentration (IC50) in experiment [1] worked out at 0.0192 µM. In the experiment on HCMV Strain AD169 (setting [2]), the EC50 came to 0.644 µM.
With `O=C1CC[C@H](CN2Cc3c(C(=O)NCc4ccc(Cl)cc4)nn(-c4ncc[nH]4)c3C2)N1` [Compound 14], the half-maximal inhibitory concentration (IC50) in experiment [1] is 0.0258 µM. Besides, the EC50 in the experiment with HCMV Strain AD169 (setting [2]) came to 1.03 µM.
Regarding `O=C1CC[C@H](CN2Cc3c(C(=O)NCc4ccc(Cl)cc4)nn(-c4nc(-c5ccccc5)cs4)c3C2)N1` [Compound 15], in experiment [1], the IC50 was found to be 0.031 µM. Also, in the experiment with HCMV Strain AD169 (setting [2]), the EC50 was determined as 1.1 µM.
For the molecule `O=C1CC[C@H](CN2Cc3c(C(=O)NCc4ccc(Cl)cc4)nn(-c4ncc(O)cn4)c3C2)N1` [Compound 17], in experiment [1], the half-maximal inhibitory concentration (IC50) was 0.0361 µM. In addition, the EC50 in the experiment on HCMV Strain AD169 (setting [2]) is 51.4 µM.
On to `CC(C)(C)c1csc(-n2nc(C(=O)NCc3ccc(Cl)cc3)c3c2CN(C[C@H]2CCC(=O)N2)C3)n1` [Compound 21], for which, in experiment [1], the half-inhibitory concentration (IC50) turned out to be 0.157 µM. For the same molecule, the concentration for a half-maximal effect (EC50) in the experiment with HCMV Strain AD169 (setting [2]) amounted to 2.67 µM.
Consider `Cn1nccc1-n1nc(C(=O)NCc2ccc(Cl)cc2)c2c1CN(C[C@H]1CCC(=O)N1)C2` [Compound 24], for which, in experiment [1], the IC50 worked out at 0.148 µM. Further, the 50% effective concentration (EC50) with HCMV Strain AD169 (setting [2]) was found to be 0.997 µM.
The like results for `O=C1CC[C@H](CN2Cc3c(C(=O)NCc4ccc(Cl)cc4)nn([C@@H]4CCCOC4)c3C2)N1` [Compound 49] were, in that order, 0.0875 µM and 3.54 µM.
In the same order, the values of `O=C1CC[C@H](CN2Cc3c(C(=O)NCc4ccc(Cl)cc4)nn(C4CCOCC4)c3C2)N1` [Compound 50] are 0.125 µM and 1.49 µM.
As to `O=C1CC[C@H](CN2Cc3c(C(=O)NCc4ccc(Cl)cc4)nn([C@H]4CCCOC4)c3C2)N1` [Compound 51], the half-maximal inhibitory concentration (IC50) in experiment [1] is 0.129 µM. Further, the EC50 with HCMV Strain AD169 (setting [2]) was determined as 1.79 µM.
For `O=C1CC[C@@H](CN2Cc3c(C(=O)NCc4ccc(Cl)cc4)nn([C@H]4CCCOC4)c3C2)N1` [Compound 52], in experiment [1], the IC50 is 0.15 µM. The concentration giving a half-maximal response (EC50) in the experiment on HCMV Strain AD169 (setting [2]) is 0.885 µM.
Take `O=C1CC[C@@H](CN2Cc3c(C(=O)NCc4ccc(Cl)cc4)nn(C4CCOCC4)c3C2)N1` [Compound 53]: the IC50 in experiment [1] was 0.124 µM. Also, in the experiment on HCMV Strain AD169 (setting [2]), the EC50 was determined as 2.09 µM.
The like results for `CC(C)C(O)Cn1nc(C(=O)NCc2ccc(Cl)cc2)c2c1CN(C[C@H]1CCC(=O)N1)C2` (stereo partly drawn) [Compound 56] were, in that order, 0.129 µM and 1.79 µM.
Regarding `Cn1nc(C(=O)NCc2ccc(C#N)c(F)c2)c2c1CN(C[C@H]1CCC(=O)N1)C2` [Compound 62], the concentration for half-maximal inhibition (IC50) in experiment [1] was 0.0625 µM.
On to `O=C(NCc1ccc(Cl)cc1)c1nn(CCNC(=O)C2CCC2)c2c1CN(Cc1c(F)cncc1F)C2` [Compound 64], for which the concentration for half-maximal inhibition (IC50) in experiment [1] turned out to be 0.064 µM.
Same read-out and setting: the value for `CN(CCn1nc(C(=O)NCc2ccc(Cl)cc2)c2c1CN(Cc1ccncc1Cl)C2)C(=O)C1CCC1` [Compound 65] was 0.0645 µM; that for `O=C(NCc1ccc(Cl)cc1)c1nn(CCNC(=O)C2CCC2)c2c1CN(Cc1ccnc(F)c1)C2` [Compound 67] was 0.119 µM; that for `O=C(NCc1ccc(Cl)cc1)c1nn(CCNC(=O)C2CCC2)c2c1CN(Cc1ccncc1Cl)C2` [Compound 70] was 1.71 µM.
On to `CC([C@@H]1CCC(=O)N1)N1Cc2c(C(=O)NCc3ccc(Cl)cc3)nn(C(F)F)c2C1` (stereo partly drawn) [Compound 72], for which the IC50 in experiment [1] was 0.976 µM.
With `Cc1nnc2n1C(CN1Cc3c(C(=O)NCc4ccc(Cl)cc4)nn(C)c3C1)CC2` (stereo not drawn) [Compound 97], in experiment [1], the half-maximal inhibitory concentration (IC50) is 0.174 µM.
